# Data: BindingDB's records for doi:10.1021/bi501086s (The University of Texas, 2014)
# Molecular target: T1, Acylase (Pseudomonas aeruginosa, UniProt A0A0G5TC92)
# T1 sequence (A0A0G5TC92 whole entry): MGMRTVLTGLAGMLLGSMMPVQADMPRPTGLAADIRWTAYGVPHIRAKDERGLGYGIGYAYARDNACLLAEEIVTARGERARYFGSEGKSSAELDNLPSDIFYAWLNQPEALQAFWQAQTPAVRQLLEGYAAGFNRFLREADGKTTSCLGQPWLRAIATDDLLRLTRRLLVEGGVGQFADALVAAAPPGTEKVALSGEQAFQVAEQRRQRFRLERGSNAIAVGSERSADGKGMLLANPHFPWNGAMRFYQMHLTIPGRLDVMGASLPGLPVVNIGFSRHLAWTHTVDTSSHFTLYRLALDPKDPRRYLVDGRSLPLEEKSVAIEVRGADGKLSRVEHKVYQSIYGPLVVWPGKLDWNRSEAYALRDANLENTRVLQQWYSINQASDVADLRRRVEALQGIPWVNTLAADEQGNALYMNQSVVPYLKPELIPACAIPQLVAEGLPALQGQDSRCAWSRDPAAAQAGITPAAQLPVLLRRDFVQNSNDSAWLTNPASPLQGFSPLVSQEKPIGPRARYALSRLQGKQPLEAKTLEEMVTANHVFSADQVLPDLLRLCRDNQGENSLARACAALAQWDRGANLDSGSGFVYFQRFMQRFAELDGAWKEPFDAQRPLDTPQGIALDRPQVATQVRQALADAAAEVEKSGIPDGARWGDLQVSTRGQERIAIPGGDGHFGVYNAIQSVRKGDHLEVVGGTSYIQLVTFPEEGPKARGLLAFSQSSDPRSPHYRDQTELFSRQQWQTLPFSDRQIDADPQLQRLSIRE
# Assay: PVdQ Inhibition Assay
# Conditions: pH 8
# Method: Briefly, stock solutions of the colorimetric PvdQ substrate (4-nitrophenyl dodecanoate) were prepared in methanol and stock solutions of each n-alkylboronic acid inhibitor in DMSO. […] Each reaction was initiated by addition of purified PvdQ (10 nM) and product formation was monitored by measuring the increase in absorbance at 402 nm continuously.
row,SMILES,Ki [µM]
1,CCB(O)O [1-Ethylboronic acid (C2-B(OH)2)],2000
2,CCCCCCB(O)O [1-Hexylboronic acid (C6-B(OH)2)],2.1
3,CCCB(O)O [1-Propylboronic acid (C3-B(OH)2)],4700
4,CCCCB(O)O [Borinic acid derivative],550
